In article PMC12692713, “Neuroprotective and Antioxidant Properties of Different Novel Steroid-Derived Nitrones and Oximes on Cerebral Ischemia In Vitro” (International Journal of Molecular Sciences, 2025):
Where two headings read alike, the source gives them in different places.

Molecular target: T1, soybean lipoxygenase (LOX) (Glycine max, UniProt P08170)
T1 construct: gene LOX1.1
T1 sequence (P08170 1-839): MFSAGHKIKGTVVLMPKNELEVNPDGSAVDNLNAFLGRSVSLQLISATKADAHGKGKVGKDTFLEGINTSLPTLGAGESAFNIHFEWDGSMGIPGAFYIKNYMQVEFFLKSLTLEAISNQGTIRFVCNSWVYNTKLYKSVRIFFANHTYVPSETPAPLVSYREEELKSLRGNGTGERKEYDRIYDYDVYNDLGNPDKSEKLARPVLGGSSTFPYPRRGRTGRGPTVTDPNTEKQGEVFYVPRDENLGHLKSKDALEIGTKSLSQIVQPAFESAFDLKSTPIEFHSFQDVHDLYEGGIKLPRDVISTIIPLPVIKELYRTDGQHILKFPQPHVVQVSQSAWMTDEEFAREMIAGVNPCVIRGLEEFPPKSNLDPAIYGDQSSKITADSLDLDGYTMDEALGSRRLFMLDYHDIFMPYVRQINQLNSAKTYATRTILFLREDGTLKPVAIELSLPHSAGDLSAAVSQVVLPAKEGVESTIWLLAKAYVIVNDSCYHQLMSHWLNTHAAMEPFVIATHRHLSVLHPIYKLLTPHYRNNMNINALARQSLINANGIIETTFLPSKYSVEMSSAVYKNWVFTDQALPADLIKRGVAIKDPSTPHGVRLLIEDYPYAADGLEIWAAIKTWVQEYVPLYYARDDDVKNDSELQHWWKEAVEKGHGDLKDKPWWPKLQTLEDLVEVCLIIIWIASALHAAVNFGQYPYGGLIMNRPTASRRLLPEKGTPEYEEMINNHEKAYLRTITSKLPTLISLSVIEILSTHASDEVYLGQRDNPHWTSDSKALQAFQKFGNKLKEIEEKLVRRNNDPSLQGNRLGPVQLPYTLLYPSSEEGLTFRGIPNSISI
Test: UV absorbance at […] nm, conversion of sodium linoleate to 13-hydroperoxylinoleic acid, Tris pH […]
Format: biochemical

| Structure (SMILES) | IC50 | IC50 (read-out: LOX Inhibition (% or IC50)) |
| --- | --- | --- |
| C#C[C@]1(O)CC[C@H]2[C@@H]3CCC4=CC(=NO)CC[C@]4(C)[C@H]3CC[C@@]21C (mixture of isomers) [MC2] | 97 ± 1.5 µM |  |
| C#C[C@]1(O)CC[C@H]2[C@@H]3CCC4=CC(=[N+](C)[O-])CC[C@]4(C)[C@H]3CC[C@@]21C [MC3] | 62 ± 0.8 µM |  |
| CC#C[C@]1(O)CC[C@H]2[C@@H]3CCC4=CC(=NO)CCC4=C3[C@@H](c3ccc(N(C)C)cc3)C[C@@]21C [MC4] |  | 3.8 ± 0.3 µM |
